By IC50 is commonly meant the concentration at which inhibition is half-maximal. High values mean weaker potency in that assay, low ones greater potency in that assay.

In test [1] the target is HpSK (H. pylori shikimate kinase) (Helicobacter pylori, UniProt P56073). The test can be described thus: Shikimate kinase inhibitor activity assay (pyruvate kinase/lactate dehydrogenase coupled), HpSK. In kind it is biochemical. Conditions: for inhibition mode with respect to shikimate (SKM): ATP fixed at 2.5 mM, shikimate varied; for inhibition mode with respect to ATP: shikimate fixed at 1.6 mM, ATP varied; for inhibitory effect against shikimate kinase (in words): preliminary screening at 50 μM. On the procedure: The shikimate kinase activity was determined by coupling the release of ADP from the shikimate kinase-catalyzed reaction to the oxidation of NADH using pyruvate kinase (EC 2.7.1.40) and lactate dehydrogenase (EC 1.1.1.27) as coupling enzymes. Shikimate-dependent oxidation of NADH was monitored by the decrease in A340 (ε=6,200 M^−1 cm^−1). The assay was carried out at 25° C. in a mixture containing 100 mM Tris/HCl/KOH buffer, pH 7.5, 50 mM KCl, 5 mM MgCl2, 1.6 mM shikimic acid, 2.5 mM ATP, 1 mM phosphoenolpyruvate, 0.1 mM NADH, 2.5 units of pyruvate kinase/ml, and 2.7 units of lactate dehydrogenase/ml. All assays were conducted in a 96-well microplate spectrophotometer (FLUOstar OPTIMA, BMG LABTECH). Kinetic parameters were obtained using nonlinear regression fitting to the Michaelis-Menten equation. The apparent Km values for each substrate were determined as follows: for ATP the shikimate concentration ([shikimate]) was maintained at 1.6 mM and the [ATP] varied in the range from 0.001 mM to 2.5 mM; for shikimate the [ATP] was maintained at 2.5 mM and the [shikimate] varied in the range from 0.005 to 1.6 mM. The kinetic data were fit to the appropriate equations using the program GraphPad Prism 4 (Software Inc., USA). The kinetic data for determining the Km values were fit to
HpSK (H. pylori shikimate kinase), sequence (P56073 whole entry): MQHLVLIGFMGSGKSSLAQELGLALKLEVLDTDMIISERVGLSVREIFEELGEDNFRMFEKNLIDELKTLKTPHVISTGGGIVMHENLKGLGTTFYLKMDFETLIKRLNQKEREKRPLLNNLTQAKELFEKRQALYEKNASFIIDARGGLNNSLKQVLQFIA
using the program GraphPad Prism 4 where v was the initial velocity, Vmax was the maximum velocity, Km was the Michaelis constant and [S] was the substrate (shikimate or ATP) concentration. The IC50 value for HpSK inhibition by inhibitors was determined by fitting data to
where v was the initial velocity, Vmax was the maximum velocity, Vmin was the minimum velocity, [I] was the concentration of compounds and n was the Hill slope.
Using GEMDOCK virtual docking and pharmarcophore model, several compounds were selected to assay inhibitor activity for verifying the inhibiting effect on HpSK and MtSK enzyme. Based on the procedure of enzyme activity assay, the initial velocities of the enzyme activity were determined in the presence of compounds (50 μM) dissolved in dimethylsulfoxide (DMSO). The final DMSO concentration in all assay mixtures was 5% (v/v). The assay buffer contained 100 mM Tris/HCl/KOH (pH 7.5), 1.6 mM shikimic acid, 2.5 mM ATP. The reaction was initiated by the addition of the diluted HpSK and MtSK enzyme (85 nM). After the preliminary screening, several compounds were identified to inhibit HpSK and MtSK enzyme activity. The initial velocities of the enzyme activity were determined in the presence of various concentrations of these compounds to investigate the dose-dependent inhibition effects. IC50 values of these compounds were obtained by fitting the data to a sigmoid dose-response equation of the GraphPad Prism 4. Afterwards, inhibitor modality was determined by measuring the effects of inhibitor concentrations on the enzymatic activity as a function of substrate concentration. In the inhibition experiment where the ATP concentration was fixed at 2.5 mM, shikimate was a varied substrate (0.06, 0.12, 0.24, 0.48, and 0.96 mM) when the concentration of inhibitor was varied from 0 to 50 μM. In parallel, in the inhibition experiment where the shikimate concentration was fixed at 1.6 mM, ATP was a varied substrate (0.06, 0.12, 0.24, 0.48, and 0.96 mM) when the concentration of inhibitor was varied from 0 to 50 μM.

For test [2], the target named is MtSK (M. tuberculosis shikimate kinase) (Mycobacterium tuberculosis, UniProt P9WPY3). The test can be described thus: Shikimate kinase inhibitor activity assay (pyruvate kinase/lactate dehydrogenase coupled), MtSK. In kind it is biochemical. Conditions: for inhibition mode with respect to shikimate (SKM): ATP fixed at 2.5 mM, shikimate varied; for inhibition mode with respect to ATP: shikimate fixed at 1.6 mM, ATP varied; for inhibitory effect against shikimate kinase (in words): preliminary screening at 50 μM.
MtSK (M. tuberculosis shikimate kinase), sequence (P9WPY3 whole entry): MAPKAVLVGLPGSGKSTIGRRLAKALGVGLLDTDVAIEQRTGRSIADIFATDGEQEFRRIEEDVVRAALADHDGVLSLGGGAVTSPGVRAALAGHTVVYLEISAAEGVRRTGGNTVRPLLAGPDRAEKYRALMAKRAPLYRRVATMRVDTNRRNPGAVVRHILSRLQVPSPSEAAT

[3] abbreviates: with respect to ATP, read-out: αKi, ATP.
[4] abbreviates: with respect to shikimate, read-out: αKi, SKM.
The mark [5] stands for this setting: MtSK, with respect to ATP, read-out: αKi, ATP.
Where [6] appears, read: MtSK, with respect to shikimate, read-out: αKi, SKM.

Where “and” joins values, the source holds several entries; their conditions need not be identical. Identical values can stand only once. Like-named read-outs stand apart in the source and are kept apart here.

In the case of “5-((E)-(4-((E)-(4-((E)-(2,4-diamino-5-methylphenyl)diazenyl)-3-methyl-2-sulfonatophenyl)diazenyl)phenyl)diazenyl)-2-hydroxybenzoate [Compound 6]”, the half-inhibitory concentration (IC50) stood at 4780 nM in test [1] and 1500 nM in test [2] (MtSK). Also, the “inhibition mode with respect to shikimate (SKM)” value (“inhibition mode … (SKM)” below) in test [1] and in test [2] (MtSK) was “Competitive” in each case. The “inhibition mode with respect to ATP” value in test [1] and in test [2] (MtSK) was “Competitive” each time. In addition, the Ki in test [1] (setting [3]) was 1050 nM; in test [1] (setting [4]), 1730 nM; in test [2] (setting [5]), 320 nM; in test [2] (setting [6]), 660 nM.
As to `N#C/C(=C/c1ccc(O)c(O)c1)C(=O)c1ccc(O)c(O)c1` [Compound 9, (Z)-2-(3,4-dihydroxybenzoyl)-3-(3,4-dihydroxyphenyl)acrylonitrile, reference compound], in test [1], it took 2300 nM to reach half-maximal inhibition (IC50). Further, the “inhibition mode … (SKM)” value in test [1] is reported as “Noncompetitive”; in test [1] (listed as AG538) it was “noncompetitive”; in test [2] (MtSK), “Noncompetitive”; in test [2] (MtSK, listed as AG538), “noncompetitive”. In addition, the “inhibitory effect against shikimate kinase (in words)” value in test [1] and in test [2] (MtSK) was “showed inhibitory results” in each case. Besides, the “inhibition mode with respect to ATP” value in test [1] and in test [2] (MtSK) was “Competitive” each time. In addition, the Ki was 3080 nM in test [1] (setting [3]) and 5350 nM in test [1] (setting [4]).
Take `N=C(NO)c1ccc(Oc2cc(Cl)cc(Cl)c2)c([N+](=O)[O-])c1` [Compound 4, (Z)-4-(3,5-dichlorophenoxy)-N′-hydroxy-3-nitrobenzimidamide]: the 50% inhibitory concentration (IC50) in test [1] was 89800 nM; in test [2] (MtSK), greater than 50000 nM.
The matching figures for `O=C1c2cccc3cc([N+](=O)[O-])cc(c23)C(=O)N1c1ccc(S(=O)(=O)Nc2ccc(C(F)(F)F)cc2)cc1` [Compound 1, 4-(5-nitro-1,3-dioxo-1H-benzo[de]isoquinolin-2(3H)-yl)-N-(4-(trifluoromethyl)phenyl)benzenesulfonamide]: 79300 nM and greater than 50000 nM.
For the compound “5-((E)-(4-((E)-(2-benzyl-8-hydroxy-6-sulfonatonaphthalen-1-yl)diazenyl)phenyl)diazenyl)-2-hydroxybenzoate [Compound 7]”, the IC50 in test [1] turned out to be 6100 nM; in test [2] (MtSK) it was 2770 nM. Besides, the “inhibition mode … (SKM)” value in test [1] and in test [2] (MtSK) was “Competitive” each time. In addition, the “inhibition mode with respect to ATP” value in test [1] and in test [2] (MtSK) was “Competitive” each time. Further, the Ki came to 1970 nM in test [1] (setting [3]), 2420 nM in test [1] (setting [4]), 730 nM in test [2] (setting [5]) and 1040 nM in test [2] (setting [6]).
As to `O=C(O)c1cc(/N=N/c2ccc(/N=N/c3c(Cc4ccccc4)ccc4cc(S(=O)(=O)O)cc(O)c34)cc2)ccc1O` [Compound 7, 5-((E)-(4-((E)-(2-benzyl-8-hydroxy-6-sulfonatonaphthalen-1-yl)diazenyl)phenyl)diazenyl)-2-hydroxybenzoate], the half-maximal inhibitory concentration (IC50) in test [1] and in test [2] (MtSK) was no more than 10000 nM throughout.
For the compound `O=C1Nc2ccc(I)cc2/C1=C/c1cc(Br)c(O)c(Br)c1` [Compound 10, (Z)-3-(3,5-dibromo-4-hydroxybenzylidene)-5-iodoindolin-2-one, reference compound], the IC50 in test [1] came to 31400 nM; in test [2], 29600 nM. The “inhibitory effect against shikimate kinase (in words)” value in test [1] and in test [2] (MtSK) was “showed inhibitory results” throughout.
Take `O=C(Nc1ccc2c(O)cc(S(=O)(=O)O)cc2c1)Nc1ccc2c(O)cc(S(=O)(=O)O)cc2c1` [Compound 5, 7,7′-carbonylbis(azanediyl)bis(4-hydroxynaphthalene-2-sulfonate)]: the 50% inhibitory concentration (IC50) in test [1] is ≤ 10000 nM and 7770 nM; in test [2] (MtSK), 2760 nM. Moreover, the “inhibition mode … (SKM)” value was “Noncompetitive” in test [1]; “noncompetitive” in test [1] (listed as NSC45174); “Noncompetitive” in test [2] (MtSK); “noncompetitive” in test [2] (MtSK, listed as NSC45174). For the same compound, the “inhibition mode with respect to ATP” value in test [1] and in test [2] (MtSK) was “Competitive” in each case. For the same compound, the Ki in test [1] (setting [3]) was found to be 1740 nM; in test [1] (setting [4]), 12800 nM; in test [2] (setting [5]), 350 nM; in test [2] (setting [6]), 2670 nM.
On to `O=C(NNC(=O)C1c2ccccc2Oc2ccccc21)c1cccc(F)c1` [Compound 3, N′-(3-fluorobenzoyl)-9H-xanthene-9-carbohydrazide], for which the figures for the IC50 in test [1] and in test [2] (MtSK) were 40200 nM and greater than 50000 nM, respectively.
In the case of `Cc1cc(/N=N/c2ccc(/N=N/c3ccc(/N=N/c4ccc(O)c(C(=O)O)c4)cc3)c(S(=O)(=O)O)c2C)c(N)cc1N` [Compound 6, 5-((E)-(4-((E)-(4-((E)-(2,4-diamino-5-methylphenyl)diazenyl)-3-methyl-2-sulfonatophenyl)diazenyl)phenyl)diazenyl)-2-hydroxybenzoate], the IC50 in test [1] and in test [2] (MtSK) was no more than 10000 nM in each case.
Turning to `Nc1ccc2c(O)c(/N=N/c3ccc4c(O)cc(S(=O)(=O)O)cc4c3)c(S(=O)(=O)O)cc2c1` [Compound 8, (E)-7-amino-4-hydroxy-3-((5-hydroxy-7-sulfonatonaphthalen-2-yl)diazenyl)naphthalene-2-sulfonate], the concentration for half-maximal inhibition (IC50) in test [1] was 4910 nM; in test [2] (MtSK) it was 1550 nM. The “inhibition mode … (SKM)” value in test [1] is “Competitive”; in test [1] (listed as NSC136535), “competitive”; in test [2] (MtSK), “Competitive”; in test [2] (MtSK, listed as NSC136535) it was “competitive”. Moreover, the “inhibition mode with respect to ATP” value in test [1] and in test [2] (MtSK) was “Competitive” throughout. The Ki in test [1] (setting [3]) was 1850 nM; in test [1] (setting [4]), 1820 nM; in test [2] (setting [5]), 240 nM; in test [2] (setting [6]) it was 610 nM.

These data come from US8175860B2, “Method of inhibiting the growth of Helicobacter pylori” (priority 2009, dated 2012).
